In patent US9695155B2, “Herbicidal substituted pyrimidinyloxy benzene compounds” (E. I. DU PONT DE NEMOURS AND COMPANY, priority 2013, dated 2017):

Tests used:
[1] = test system: johnsongrass; experiment: Test C preemergence; type: in vivo, Sorghum halepense; details: preemergence
From the text: (§1) Seeds of plant species selected from blackgrass (Alopecurus myosuroides), Italian ryegrass (Lolium multiflorum), wheat, winter (winter wheat, Triticum aestivum), galium (catchweed bedstraw, Galium aparine), corn (Zea mays), large (Lg) crabgrass (Digitaria sanguinalis), giant foxtail (Setaria faberii), johnsongrass (Sorghum halepense), lambsquarters (Chenopodium album), morningglory (Ipomoea coccinea), yellow nutsedge (Cyperus esculentus), pigweed (Amaranthus retroflexus), ragweed (common ragweed, Ambrosia elatior), soybean (Glycine max), barnyardgrass (Echinochloa crus-galli), oilseed rape (Brassica napus), waterhemp (common waterhemp, Amaranthus rudis), kochia (Kochia scoparia), wild oat (Avena fatua), surinam grass (Brachiaria decumbens), foxtail, green (green foxtail, Setaria viridis), goosegrass (Eleusine indica), bromegrass, downy (downy bromegrass, Bromus tectorum), nightshade (eastern black nightshade, Solanum ptycanthum), cocklebur (common cocklebur, Xanthium strumarium), cupgrass, woolly (woolly cupgrass, Eriochloa villosa), bermudagrass (Cynodon dactylon), sunflower, (common oilseed sunflower, Helianthus annuus), Russian thistle (Salsola kali), and velvetleaf (Abutilon theophrasti) were planted into a blend of loam soil and sand and treated preemergence with test chemicals formulated in a non-phytotoxic solvent mixture which included a surfactant.
(§2) At the same time, plants selected from these crop and weed species and also barley, winter (winter barley, Hordeum vulgare), windgrass (Apera spica-venti), chickweed (common chickweed, Stellaria media), deadnettle (henbit deadnettle, Lamium amplexicaule), and canarygrass (littleseed canarygrass, Phalaris minor) were planted in pots containing Redi-Earth® planting medium (Scotts Company, 14111 Scottslawn Road, Marysville, Ohio 43041) comprising spaghnum peat moss, vermiculite, wetting agent and starter nutrients and treated with postemergence applications of test chemicals formulated in the same manner. Plants ranged in height from 2 to 18 cm (1- to 4-leaf stage) for postemergence treatments. Treated plants and controls were maintained in a greenhouse for 13 to 15 days, after which time all species were compared to controls and visually evaluated. Plant response ratings, summarized in Table C, are based on a scale of 0 to 100 where 0 is no effect and 100 is complete control. A dash (-) response means no test result.

[2] = test system: velvetleaf; experiment: Test C preemergence; type: in vivo, Abutilon theophrasti; details: preemergence
From the text: as §1, §2

[3] = test system: barnyardgrass; experiment: Test C preemergence; type: in vivo, Echinochloa crus-galli; details: for Barnyardgrass plant response rating: preemergence
From the text: as §1, §2

[4] = test system: wheat, winter; experiment: Test C preemergence; type: in vivo, Triticum aestivum; details: preemergence
From the text: as §1, §2

[5] = test system: pigweed; experiment: Test C preemergence; type: in vivo, Amaranthus retroflexus; details: preemergence
From the text: as §1, §2

[6] = test system: galium; experiment: Test C preemergence; type: in vivo, Galium aparine; details: for Galium plant response rating: preemergence
From the text: as §1, §2

[7] = test system: lambsquarters; experiment: Test C preemergence; type: in vivo, Chenopodium album; details: preemergence
From the text: as §1, §2

[8] = test system: giant foxtail; experiment: Test C preemergence; type: in vivo, Setaria faberii; details: for Foxtail, Giant plant response rating: preemergence
From the text: as §1, §2

[9] = test system: waterhemp; experiment: Test C preemergence; type: in vivo, Amaranthus rudis; details: preemergence
From the text: as §1, §2

[10] = test system: ragweed; experiment: Test C preemergence; type: in vivo, Ambrosia elatior; details: preemergence
From the text: as §1, §2

[11] = test system: soybean; experiment: Test C preemergence; type: in vivo, Glycine max; details: preemergence
From the text: as §1, §2

[12] = test system: blackgrass; experiment: Test C preemergence; type: in vivo, Alopecurus myosuroides; details: for Blackgrass plant response rating: preemergence
From the text: as §1, §2

[13] = test system: oilseed rape; experiment: Test C preemergence; type: in vivo, Brassica napus; details: preemergence
From the text: as §1, §2

[14] = test system: yellow nutsedge; experiment: Test C preemergence; type: in vivo, Cyperus esculentus; details: preemergence
From the text: as §1, §2

[15] = test system: kochia; experiment: Test A preemergence; type: in vivo, Kochia scoparia
Procedure, shortened: (§3)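 Greenhouse pot test, loam/sand soil. Formulation: non-phytotoxic solvent mix plus surfactant. Pre: directed spray onto soil after sowing. Post: plants at 1–2 leaf, 2–10 cm. Rated visually vs untreated controls at ~10 d, 0 (no effect) to 100 (complete control).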

[16] = test system: Italian ryegrass; experiment: Test A preemergence; type: in vivo, Lolium multiflorum
Procedure, shortened: as §3

[17] = test system: galium; experiment: Test A postemergence; type: in vivo, Galium aparine
Procedure, shortened: as §3

[18] = test system: kochia; experiment: Test A postemergence; type: in vivo, Kochia scoparia
Procedure, shortened: as §3

[19] = 16 g ai/ha, scale 0 to 100 (0 no effect, 100 complete control)
[20] = 62 g ai/ha, scale 0 (no effect) to 100 (complete control)
[21] = 125 g ai/ha, scale 0 (no effect) to 100 (complete control)
[22] = Preemergence, 31 g ai/ha, scale 0 to 100, 0 no effect, 100 complete control
[23] = 31 g ai/ha, 0 to 100 scale where 0 is no effect and 100 is complete control, visual, approximately 10 days
[24] = 125 g ai/ha, 0 to 100 scale where 0 is no effect and 100 is complete control
[25] = 31 g ai/ha, 0 to 100 scale, 0 no effect, 100 complete control
[26] = 500 g ai/ha, 0 to 100 scale where 0 is no effect and 100 is complete control
[27] = 1000 g ai/ha, 0 to 100 scale, 0 no effect, 100 complete control, approx. 10 days
[28] = 1000 g ai/ha, 0 to 100 scale, 0 no effect, 100 complete control
[29] = 125 g ai/ha, 0 to 100 scale, 0 no effect, 100 complete control

With `Fc1cnc(Oc2cccc(C(F)F)c2-n2cc(C(F)(F)F)cn2)nc1` [Compound 164] the “Johnsongrass plant response rating” value [1, 19] was 5, the “Johnsongrass plant response rating” value [1, 20] was 75 and the “Johnsongrass plant response rating” value [1, 21] was 80. For the same compound, the “Velvetleaf plant response rating” value [2, 19] was 50, the “Velvetleaf plant response rating” value [2, 20] was 100 and the “Velvetleaf plant response rating” value [2, 21] was 100. For the same compound, the “Barnyardgrass plant response rating” value [3, 19] was 15, the “Barnyardgrass plant response rating” value [3, 20] was 98 and the “Barnyardgrass plant response rating” value [3, 21] was 100. The “Plant response rating, Barnyardgrass” value [3, 22] was 70, the “Wheat plant response rating” value [4, 19] was 0 and the “Wheat plant response rating” value [4, 20] was 30. For the same compound, the “Wheat plant response rating” value [4, 21] was 35, the “Pigweed plant response rating” value [5, 19] was 98 and the “Pigweed plant response rating” value [5, 20] was 100. For the same compound, the “Pigweed plant response rating” value [5, 21] was 98, the “Galium plant response rating” value [6, 19] was 75 and the “Galium plant response rating” value [6, 20] was 95. The “Galium plant response rating” value [6, 21] was 95, the “Plant response rating, Galium” value [6, 22] was 100 and the “Lambsquarters plant response rating” value [7, 19] was 70. For the same compound, the “Lambsquarters plant response rating” value [7, 20] was 100, the “Lambsquarters plant response rating” value [7, 21] was 98 and the “Foxtail, Giant plant response rating” value [8, 19] was 40. The “Foxtail, Giant plant response rating” value [8, 20] was 100, the “Foxtail, Giant plant response rating” value [8, 21] was 100 and the “Plant response rating, Foxtail, Giant” value [8, 22] was 95. For the same compound, the “Waterhemp plant response rating” value [9, 19] was 85, the “Waterhemp plant response rating” value [9, 20] was 100 and the “Waterhemp plant response rating” value [9, 21] was 100. The “Ragweed plant response rating” value [10, 19] was 0, the “Ragweed plant response rating” value [10, 20] was 75 and the “Ragweed plant response rating” value [10, 21] was 85. For the same compound, the “Soybean plant response rating” value [11, 19] was 0, the “Soybean plant response rating” value [11, 20] was 65 and the “Soybean plant response rating” value [11, 21] was 95. The “Blackgrass plant response rating” value [12, 19] was 0, the “Blackgrass plant response rating” value [12, 20] was 90 and the “Blackgrass plant response rating” value [12, 21] was 90. The “Plant response rating, Blackgrass” value [12, 22] was 50, the “Oilseed Rape plant response rating” value [13, 19] was 70 and the “Oilseed Rape plant response rating” value [13, 20] was 100. The “Oilseed Rape plant response rating” value [13, 21] was 100, the “Nutsedge, Yellow plant response rating” value [14, 19] was 0 and the “Nutsedge, Yellow plant response rating” value [14, 20] was 20. The “Nutsedge, Yellow plant response rating” value [14, 21] was 25.

With `FCc1cccc(Oc2ncc(F)cn2)c1-n1cc(I)cn1` [Compound 152] the “Plant response rating, Kochia” value [15, 23] was 20, the “Plant response rating, Kochia” value [15, 24] was 90 and the “Plant response rating, Ryegrass, Italian” value [16, 23] was 0. The “Plant response rating, Ryegrass, Italian” value [16, 24] was 0, the “Plant response rating, Galium” value [17, 25] was 90 and the “Galium plant response rating” value [17, 24] was 90. For the same compound, the “Plant response rating, Kochia” value [18, 25] was 20 and the “Kochia plant response rating” value [18, 24] was 80.

For `Clc1cnc(Oc2cccc(Br)c2-n2cc(I)nn2)nc1` [Compound 117], the “Plant response rating, Kochia” value [15, 24] was 70, the “Kochia plant response rating” value [15, 26] was 100 and the “Plant response rating, Ryegrass, Italian” value [16, 24] was 20. For the same compound, the “Ryegrass, Italian plant response rating” value [16, 26] was 30, the “Plant response rating, Galium” value [17, 24] was 100 and the “Plant response rating, Galium” value [17, 26] was 100. For the same compound, the “Plant response rating, Kochia” value [18, 24] was 100 and the “Plant response rating, Kochia” value [18, 26] was 100.

In the case of `FCc1cn(-c2ccccc2Oc2ncc(Cl)cn2)nn1` [Compound 123], the “Kochia plant response rating” value [15, 27] is reported as 100, the “Ryegrass, Italian plant response rating” value [16, 27] is reported as 70 and the “Plant response rating, Galium” value [17, 28] is reported as 100. The “Plant response rating, Kochia” value [18, 28] was 100.

In the case of `N#Cc1cnn(-c2c(Br)cccc2Oc2ncc(Cl)cn2)c1` [Compound 140], the “Plant response rating, Kochia” value [15, 23] is reported as 60, the “Plant response rating, Kochia” value [15, 24] is reported as 100 and the “Plant response rating, Ryegrass, Italian” value [16, 23] is reported as 0. For the same compound, the “Plant response rating, Ryegrass, Italian” value [16, 24] was 0, the “Plant response rating, Galium” value [17, 25] was 80 and the “Galium plant response rating” value [17, 24] was 90. For the same compound, the “Plant response rating, Kochia” value [18, 25] was 90 and the “Kochia plant response rating” value [18, 24] was 100.

In the case of `Clc1cnc(Oc2ccccc2-n2cc(C3CC3)nn2)nc1` [Compound 160, 5-chloro-2-[2-(4-cyclopropyl-1H-1,2,3-triazol-1-yl)phenoxy]pyrimidine], the “Kochia plant response rating” value [15, 27] is reported as 100, the “Ryegrass, Italian plant response rating” value [16, 27] is reported as 90 and the “Plant response rating, Galium” value [17, 28] is reported as 100. For the same compound, the “Plant response rating, Kochia” value [18, 28] was 100.

In the case of `FCc1cccc(Oc2ncc(Cl)cn2)c1-n1cc(I)cn1` [Compound 245], the “Plant response rating, Kochia” value [15, 23] is reported as 0, the “Kochia plant response rating (0 to 100 scale)” value ([15]; 125 g ai/ha) is reported as 30 and the “Plant response rating, Ryegrass, Italian” value [16, 23] is reported as 0. The “Ryegrass, Italian plant response rating (0 to 100 scale)” value ([16]; 125 g ai/ha) was 0, the “Plant response rating, Galium” value [17, 25] was 100 and the “Plant response rating, Galium” value [17, 29] was 100. The “Plant response rating, Kochia” value [18, 25] was 60 and the “Plant response rating, Kochia” value [18, 29] was 100.
